# Experiment: in vivo
# Details: BALB/c, mouse, sc; for AUC(0-t): AUC0–24
structure (smiles),measurement,setting,value
O=C1c2c(O)c(=O)ccn2N([C@@H]2c3ccccc3SCc3c2ccc(F)c3F)[C@@H]2COCCN12 [baloxavir acid],AUC(0-t),0.125 mg/kg,267 ng·h/mL
same,Cmax,0.125 mg/kg,18.7 ng/mL
same,AUC(0-t),0.25 mg/kg,535 ng·h/mL
same,Cmax,0.25 mg/kg,37.3 ng/mL
same,AUC(0-t),0.5 mg/kg,961 ng·h/mL
same,Cmax,0.5 mg/kg,66.1 ng/mL
same,AUC(0-t),1 mg/kg,1810 ng·h/mL
same,Cmax,1 mg/kg,124 ng/mL
same,Cmax,2 mg/kg,222 ng/mL
same,Cmax,4 mg/kg,417 ng/mL
same,AUC(0-t),8 mg/kg,6380 ng·h/mL
same,Cmax,8 mg/kg,414 ng/mL
same,AUC(0-t),16 mg/kg,11100 ng·h/mL
same,Cmax,16 mg/kg,726 ng/mL
same,AUC(0-t),32 mg/kg,8860 ng·h/mL
same,Cmax,32 mg/kg,682 ng/mL
same,AUC(0-t),64 mg/kg,12600 ng·h/mL
same,Cmax,64 mg/kg,938 ng/mL

# Reference: paper PMC10222987 (Viruses, 2023)
